Assay results from ChEMBL document CHEMBL1126821, “A systematic evaluation of the inhibition of HIV-1 protease by its C- and N-terminal peptides” (Bioorg Med Chem Lett, 1993).
Residues, ends and D or L forms follow the SMILES beside them.

Target: Human immunodeficiency virus type 1 protease (Human immunodeficiency virus 1) (UniProt Q72874)
Assay: Inhibitory activity against HIV-1 protease at 100 uM

SMILES	inhibition [%]
CC[C@H](C)[C@H](NC(=O)[C@H](CCC(N)=O)NC(=O)[C@@H]1CCCN1C(C)=O)C(=O)N[C@H](C(=O)N[C@@H](CC(C)C)C(=O)N[C@@H](Cc1c[nH]c2ccccc12)C(=O)N[C@@H](CCC(N)=O)C(=O)O)[C@@H](C)O (Ac-PQITLWQ-OH)	26
CC[C@H](C)[C@H](NC(=O)[C@H](CCC(N)=O)NC(=O)[C@@H]1CCCN1)C(=O)N[C@H](C(=O)N[C@@H](CC(C)C)C(=O)N[C@@H](Cc1c[nH]c2ccccc12)C(=O)N[C@@H](CCC(N)=O)C(=O)O)[C@@H](C)O (H-PQITLWQ-OH)	1.3
CC[C@H](C)[C@H](NC(C)=O)C(=O)NCC(=O)N[C@@H](CO)C(=O)N[C@H](C(=O)N[C@@H](CC(C)C)C(=O)N[C@@H](CC(N)=O)C(=O)N[C@@H](Cc1ccccc1)C(=O)O)[C@@H](C)O (Ac-IGSTLNF-OH)	12.6
CC[C@H](C)[C@H](NC(=O)[C@H](CCC(N)=O)NC(=O)[C@@H]1CCCN1)C(=O)N[C@H](C(=O)N[C@@H](CC(C)C)C(=O)N[C@@H](Cc1c[nH]c2ccccc12)C(=O)O)[C@@H](C)O (H-PQITLW-OH)	39.9
CC(=O)NCC(=O)N[C@@H](CO)C(=O)N[C@H](C(=O)N[C@@H](CC(C)C)C(=O)N[C@@H](CC(N)=O)C(=O)N[C@@H](Cc1ccccc1)C(=O)O)[C@@H](C)O (Ac-GSTLNF-OH)	4.6
CC[C@H](C)[C@H](NC(=O)[C@H](CCC(N)=O)NC(=O)[C@@H]1CCCN1)C(=O)N[C@H](C(=O)N[C@@H](CC(C)C)C(=O)O)[C@@H](C)O (H-PQITL-OH)	5.6
CC[C@H](C)[C@H](NC(=O)[C@H](CCC(N)=O)NC(=O)[C@@H]1CCCN1C(C)=O)C(=O)N[C@H](C(=O)N[C@@H](CC(C)C)C(=O)N[C@@H](Cc1c[nH]c2ccccc12)C(=O)O)[C@@H](C)O (Ac-PQITLW-OH)	28.1
CC(=O)N[C@H](C(=O)N[C@@H](CC(C)C)C(=O)N[C@@H](CC(N)=O)C(=O)N[C@@H](Cc1ccccc1)C(=O)O)[C@@H](C)O (Ac-TLNF-OH)	3.9
CC[C@H](C)[C@H](NC(=O)[C@H](CCC(N)=O)NC(=O)[C@@H]1CCCN1C(C)=O)C(=O)N[C@H](C(=O)N[C@@H](CC(C)C)C(=O)O)[C@@H](C)O (Ac-PQITL-OH)	-1.4
CC(=O)N[C@@H](CO)C(=O)N[C@H](C(=O)N[C@@H](CC(C)C)C(=O)N[C@@H](CC(N)=O)C(=O)N[C@@H](Cc1ccccc1)C(=O)O)[C@@H](C)O (Ac-STLNF-OH)	37.2
CC[C@H](C)[C@H](NC(=O)[C@H](CCC(N)=O)NC(C)=O)C(=O)NCC(=O)N[C@@H](CO)C(=O)N[C@H](C(=O)N[C@@H](CC(C)C)C(=O)N[C@@H](CC(N)=O)C(=O)N[C@@H](Cc1ccccc1)C(=O)O)[C@@H](C)O (Ac-QIGSTLNF-OH)	34.6
